Laboratory results reported in patent US20020019356A1, “HYPERBARIC OXIGENATION (HBO) AS THE METHOD FOR ENHANCEMENT EFFICIENCY OF ANTI-HIV SUBSTANCES IN INHIBITION THE HUMAN IMMUNODEFICIENCY VIRUS (HIV) REPRODUCTION AND REDUCTION OF THE CYTOTOXIC EFFECT OF THOSE SUBSTANCES AS WELL” (priority 1998, published 2002).

How the values were obtained:
HIV-1A216 = experiment: Viral antigen content (polyclonal EIA) in supernatant of Supt1 culture infected with AZT-resistant HIV-1A216, with or without HBO; assay type: cell-based, Human Immunodeficiency Virus; conditions: Supt1/HIV-1A216
Protocol: 1.) Determination of the total level of viral antigen expression by means of the method of polyclonal immunoenzyme analysis (EIA) [ABBOTT™ ELISA Kit].
The values of 50 per cent effective AZT dose (ED50) were calculated conformably to oxidised and non-oxidised cells subsequently infected by HIV and treated by AZT in various concentrations.
ED50 values were derived according to the linear regression resulting averaged values of the optical density signal V(%) depending on the logarithm of AZT doses (10^−6; 10^−7; . . . 10^−12 M).[8]
Regression lines are determined with the following formula: […]
where <> and <> are regression coefficients, calculated by mean square root method.
(§1) 18 million Supt1 cells in 60 ml of the growth medium RPMI-1640 with 10% fetal calf serum, 2 mM L-glutamine and […] genthamycin were placed in each of 2 plastic flasks (75 cm^3), mark Costar®, USA, one of which was subjected to HBO (Ox+), and the other was used for counterchecks with intact and infected cells without a HBO exposure (Ox−).
(§2) The HBO [6] was carried out in the oxygenous pressure chamber BLKS-303M. The pressure chamber was sealed, blown out with oxygen over 7 min till an oxygen concentration of 98-100% was obtained at the outlet of the pressure chamber, whereupon the oxygen pressure in said pressure chamber was increased up to 1.5 ate. The compression rate was 1,077 ate/min and the time period of isocompression was 40 min. After having finished the HBO process, the oxygen pressure was decreased to atmospheric during 6 min.
(§3) Over 40 min after a finish of the HBO—procedure in the each well of the 24-wells plate (Nuclon®, Denmark) added 45 μL of a cell suspension (3×10^5 cell/mL) and 50 μL of a growth substance with a different concentrations of AZT.
(§4) After an incubation over 2 hours at 37° C. an oxygenated and non-oxygenated samples were infected with HIV-1BRU (non-resistant to AZT) and HIV-1A216 (resistant to AZT),
(§5) After having centrifuged 24-wells plate at 300 g over 10 min, supernatant was taken out the wells by S-tips (besides […] of a cell's sediment), to which was added […] of the virus-containing supernatant of 480 TCID50.
(§6) After an incubation over two hours with the virus-containing inoculum at 37° C., the cells were there-fold washed off from residual virus by centrifugation with 300 g over 10 min in the 30-fold volume of the medium and in every well of 24-wells plate were added […] of the growth medium with corresponding AZT-concentration.
(§7) The mixed samples were cultivated in a thermostat at 37° C., 5% CO2 and 80% moisture content.
The experimental procedure was identically with that described in Example 1, except that there were monitored HIV-1A216 antigen expression by the method of polyclonal EIA.

Supt1 cells = experiment: Viability of Supt1 cells with different AZT concentrations, with or without HBO (MTT-test); assay type: cell-based, human
From the text: 4.) Monitoring the viability by means of direct cell calculation in a Goryaev counting chamber after colouring with the excepting vital stain 0.2% trypan blue. For the direct comparison of the amounts of living cells there is used the so-called MTT-method, which is based on the capability of living cells to reduce the yellow water-soluble tetrazole salt MTT (3-(4,5)-dimethylthiazol-2-ye)-2,5-diphenyl-bromide tetrazole) into insoluble intracellular MTT-formazan crystals, whereas dead cells are not capable to do this.
A concentrated MTT solution of 10 mg/ml is prepared with a phosphate buffer solution at pH 7.4 and brought into a hollow with the cells at a 10-fold dilution rate.
After incubation over 4 hours at 37° C. the supernatant is isolated with help of microdosing tips of a special design (S-tips).
Into the hollow is added […] of DMSO as solvent. The thereupon measurable optical density is within 540 to 590 nm, i.e. in the absorption range of formazan, is direct proportional to the quantity of living cells.
as §1, §2, §3, §6
The mixed samples were cultivated in a thermostat at 37° C., 5% CO2 and 80% moisture content. […]
The monitoring results of viability of oxygenated and not-oxygenated cells Supt1, inoculated HIV-1BRU with different AZT-concentrations, are shown in Table 1.

HIV-1BRU = experiment: Viral antigen content (polyclonal EIA) in supernatant of Supt1 culture infected with HIV-1BRU, with or without HBO; assay type: cell-based, Human Immunodeficiency Virus; parameters: unit not given here; conditions: Supt1/HIV-1BRU
Protocol: 1.) Determination of the total level of viral antigen expression by means of the method of polyclonal immunoenzyme analysis (EIA) [ABBOTT™ ELISA Kit]. […]
as §1, §2, §3, §4, §5, §6, §7
The experimental procedure was identically with that described in Example 1, except that there were monitored HIV-BRU antigen expression by the method of polyclonal EIA.

[1] = AZT 10^−11 M, day 3 after infection, OX+
[2] = AZT 10^−11 M, day 3 after infection, OX−

`Cc1cn([C@H]2C[C@H](N=[N+]=[N-])[C@@H](CO)O2)c(=O)[nH]c1=O` [AZT, 3-azido-2,3-didezoxythimidim] was tested, and the “Content of viral antigen in supernatant” value (HIV-1A216; AZT 10^−6 M, day 2 after infection, OX+) was 20.5, the “Content of viral antigen in supernatant” value (HIV-1A216; AZT 10^−6 M, day 2 after infection, OX−) was 21.8 and the “Content of viral antigen in supernatant” value (HIV-1A216; AZT 10^−6 M, day 3 after infection, OX+) was 33.3. For the same molecule, the “Content of viral antigen in supernatant” value (HIV-1A216; AZT 10^−6 M, day 3 after infection, OX−) was 51.1, the “Content of viral antigen in supernatant” value (HIV-1A216; AZT 10^−8 M, day 2 after infection, OX+) was 29.3 and the “Content of viral antigen in supernatant” value (HIV-1A216; AZT 10^−8 M, day 2 after infection, OX−) was 33.1. For the same molecule, the “Content of viral antigen in supernatant” value (HIV-1A216; AZT 10^−8 M, day 3 after infection, OX+) was 51.8, the “Content of viral antigen in supernatant” value (HIV-1A216; AZT 10^−8 M, day 3 after infection, OX−) was 70.7 and the “Content of viral antigen in supernatant” value (HIV-1A216; AZT 10^−11 M, day 2 after infection, OX+) was 29.6. The “Content of viral antigen in supernatant” value (HIV-1A216; AZT 10^−11 M, day 2 after infection, OX−) was 48.2, the “Content of viral antigen in supernatant” value (HIV-1A216; [1]) was 44.5 and the “Content of viral antigen in supernatant” value (HIV-1A216; [2]) was 92.1. The “viability of the cell culture Supt1 (MTT-test)” value (“viability” below) (Supt1 cells; AZT 10^−3 M, day 2 after AZT addition, HBO+) was 52.3 per cents, the “viability” value (Supt1 cells; AZT 10^−3 M, day 2 after AZT addition, HBO−) was 45.3 per cents and the “viability” value (Supt1 cells; AZT 10^−3 M, day 3 after AZT addition, HBO+) was 55.6 per cents. The “viability” value (Supt1 cells; AZT 10^−3 M, day 3 after AZT addition, HBO−) was 51.1 per cents, the “viability” value (Supt1 cells; AZT 10^−3 M, day 5 after AZT addition, HBO+) was 35.0 per cents and the “viability” value (Supt1 cells; AZT 10^−3 M, day 5 after AZT addition, HBO−) was 25.3 per cents. The “viability” value (Supt1 cells; AZT 10^−4 M, day 2 after AZT addition, HBO+) was 65.2 per cents, the “viability” value (Supt1 cells; AZT 10^−4 M, day 2 after AZT addition, HBO−) was 63.1 per cents and the “viability” value (Supt1 cells; AZT 10^−4 M, day 3 after AZT addition, HBO+) was 73.6 per cents. For the same molecule, the “viability” value (Supt1 cells; AZT 10^−4 M, day 3 after AZT addition, HBO−) was 50.5 per cents, the “viability” value (Supt1 cells; AZT 10^−4 M, day 5 after AZT addition, HBO+) was 61.1 per cents and the “viability” value (Supt1 cells; AZT 10^−4 M, day 5 after AZT addition, HBO−) was 55.1 per cents. The “viability” value (Supt1 cells; AZT 10^−5 M, day 2 after AZT addition, HBO+) was 79.3 per cents, the “viability” value (Supt1 cells; AZT 10^−5 M, day 2 after AZT addition, HBO−) was 72.3 per cents and the “viability” value (Supt1 cells; AZT 10^−5 M, day 3 after AZT addition, HBO+) was 85.4 per cents. For the same molecule, the “viability” value (Supt1 cells; AZT 10^−5 M, day 3 after AZT addition, HBO−) was 70.0 per cents, the “viability” value (Supt1 cells; AZT 10^−5 M, day 5 after AZT addition, HBO+) was 80.5 per cents and the “viability” value (Supt1 cells; AZT 10^−5 M, day 5 after AZT addition, HBO−) was 71.9 per cents. The “viability” value (Supt1 cells; AZT 10^−6 M, day 2 after AZT addition, HBO+) was 89.3 per cents, the “viability” value (Supt1 cells; AZT 10^−6 M, day 2 after AZT addition, HBO−) was 52.7 per cents and the “viability” value (Supt1 cells; AZT 10^−6 M, day 3 after AZT addition, HBO+) was 96.0 per cents. For the same molecule, the “viability” value (Supt1 cells; AZT 10^−6 M, day 3 after AZT addition, HBO−) was 80.2 per cents, the “viability” value (Supt1 cells; AZT 10^−6 M, day 5 after AZT addition, HBO+) was 87.8 per cents and the “viability” value (Supt1 cells; AZT 10^−6 M, day 5 after AZT addition, HBO−) was 73.0 per cents. The “viability” value (Supt1 cells; AZT 10^−7 M, day 2 after AZT addition, HBO+) was 93.0 per cents, the “viability” value (Supt1 cells; AZT 10^−7 M, day 2 after AZT addition, HBO−) was 53.8 per cents and the “viability” value (Supt1 cells; AZT 10^−7 M, day 3 after AZT addition, HBO+) was 95.2 per cents. For the same molecule, the “viability” value (Supt1 cells; AZT 10^−7 M, day 3 after AZT addition, HBO−) was 114.1 per cents, the “viability” value (Supt1 cells; AZT 10^−7 M, day 5 after AZT addition, HBO+) was 92.0 per cents and the “viability” value (Supt1 cells; AZT 10^−7 M, day 5 after AZT addition, HBO−) was 79.2 per cents. For the same molecule, the “viability” value (Supt1 cells; AZT 10^−8 M, day 2 after AZT addition, HBO+) was 107.8 per cents, the “viability” value (Supt1 cells; AZT 10^−8 M, day 2 after AZT addition, HBO−) was 100.6 per cents and the “viability” value (Supt1 cells; AZT 10^−8 M, day 3 after AZT addition, HBO+) was 100.9 per cents. The “viability” value (Supt1 cells; AZT 10^−8 M, day 3 after AZT addition, HBO−) was 118.3 per cents, the “viability” value (Supt1 cells; AZT 10^−8 M, day 5 after AZT addition, HBO+) was 85.6 per cents and the “viability” value (Supt1 cells; AZT 10^−8 M, day 5 after AZT addition, HBO−) was 85.9 per cents. For the same molecule, the “viability” value (Supt1 cells; AZT 10^−9 M, day 2 after AZT addition, HBO+) was 98.3 per cents, the “viability” value (Supt1 cells; AZT 10^−9 M, day 2 after AZT addition, HBO−) was 95.2 per cents and the “viability” value (Supt1 cells; AZT 10^−9 M, day 3 after AZT addition, HBO+) was 102.1 per cents. For the same molecule, the “viability” value (Supt1 cells; AZT 10^−9 M, day 3 after AZT addition, HBO−) was 98.6 per cents, the “viability” value (Supt1 cells; AZT 10^−9 M, day 5 after AZT addition, HBO+) was 97.3 per cents and the “viability” value (Supt1 cells; AZT 10^−9 M, day 5 after AZT addition, HBO−) was 80.1 per cents. The “Content of viral antigen in supernatant” value (HIV-1BRU; AZT 10^−7 M, day 3 after infection, OX+) was 8.8, the “Content of viral antigen in supernatant” value (HIV-1BRU; AZT 10^−7 M, day 3 after infection, OX−) was 8.0 and the “Content of viral antigen in supernatant” value (HIV-1BRU; AZT 10^−7 M, day 5 after infection, OX+) was 9.9. The “Content of viral antigen in supernatant” value (HIV-1BRU; AZT 10^−7 M, day 5 after infection, OX−) was 50.2, the “Content of viral antigen in supernatant” value (HIV-1BRU; AZT 10^−9 M, day 3 after infection, OX+) was 7.4 and the “Content of viral antigen in supernatant” value (HIV-1BRU; AZT 10^−9 M, day 3 after infection, OX−) was 14.5. The “Content of viral antigen in supernatant” value (HIV-1BRU; AZT 10^−9 M, day 5 after infection, OX+) was 21.5, the “Content of viral antigen in supernatant” value (HIV-1BRU; AZT 10^−9 M, day 5 after infection, OX−) was 82.3 and the “Content of viral antigen in supernatant” value (HIV-1BRU; [1]) was 8.7. The “Content of viral antigen in supernatant” value (HIV-1BRU; [2]) was 14.4, the “Content of viral antigen in supernatant” value (HIV-1BRU; AZT 10^−11 M, day 5 after infection, OX+) was 62.0 and the “Content of viral antigen in supernatant” value (HIV-1BRU; AZT 10^−11 M, day 5 after infection, OX−) was 83.4.
